In ChEMBL document CHEMBL5050844 (2019):

How the values were obtained:
[1] = Induction of anti-CD3/CD28 antibodies-stimulated human T cell activation at 0.3 uM assessed fold increase in CD25 expression measured by ELISA assay; assay type: functional, T cell line
[2] = Induction of anti-CD3/CD28 antibodies-stimulated human T cell activation at 0.3 uM assessed fold increase in IL-2 secretion measured by ELISA assay; assay type: functional, T cell line
[3] = Induction of anti-CD3/CD28 antibodies-stimulated human T cell activation at 1 uM assessed fold increase in IL-2 secretion measured by ELISA assay; assay type: functional, T cell line
[4] = Induction of anti-CD3 antibodies-stimulated human T cell activation at 1 uM assessed fold increase in IL-2 secretion measured by ELISA assay; assay type: functional, T cell line; also: reference of the scale not given here
[5] = Induction of anti-CD3/CD28 antibodies-stimulated human T cell activation at 1 uM assessed fold increase in CD25 expression measured by ELISA assay; assay type: functional, T cell line
[6] = Induction of anti-CD3 antibodies-stimulated human T cell activation at 1 uM assessed fold increase in CD25 expression measured by ELISA assay; assay type: functional, T cell line; also: reference of the scale not given here
[7] = biological target: E3 ubiquitin-protein ligase CBL-B (Homo sapiens, UniProt Q13191); assay: Inhibition of N-terminal Avi-tagged human CBL-B (36 to 427 residues) incubated with 60 nM Src kinase for 1.5 hrs followed by incubation with fluorescently labeled UbcH5B-Ub for 1 hr and measured by TR-FRET assay; assay type: single protein
Sequence of E3 ubiquitin-protein ligase CBL-B (Q13191 whole entry, the tested form may be a part): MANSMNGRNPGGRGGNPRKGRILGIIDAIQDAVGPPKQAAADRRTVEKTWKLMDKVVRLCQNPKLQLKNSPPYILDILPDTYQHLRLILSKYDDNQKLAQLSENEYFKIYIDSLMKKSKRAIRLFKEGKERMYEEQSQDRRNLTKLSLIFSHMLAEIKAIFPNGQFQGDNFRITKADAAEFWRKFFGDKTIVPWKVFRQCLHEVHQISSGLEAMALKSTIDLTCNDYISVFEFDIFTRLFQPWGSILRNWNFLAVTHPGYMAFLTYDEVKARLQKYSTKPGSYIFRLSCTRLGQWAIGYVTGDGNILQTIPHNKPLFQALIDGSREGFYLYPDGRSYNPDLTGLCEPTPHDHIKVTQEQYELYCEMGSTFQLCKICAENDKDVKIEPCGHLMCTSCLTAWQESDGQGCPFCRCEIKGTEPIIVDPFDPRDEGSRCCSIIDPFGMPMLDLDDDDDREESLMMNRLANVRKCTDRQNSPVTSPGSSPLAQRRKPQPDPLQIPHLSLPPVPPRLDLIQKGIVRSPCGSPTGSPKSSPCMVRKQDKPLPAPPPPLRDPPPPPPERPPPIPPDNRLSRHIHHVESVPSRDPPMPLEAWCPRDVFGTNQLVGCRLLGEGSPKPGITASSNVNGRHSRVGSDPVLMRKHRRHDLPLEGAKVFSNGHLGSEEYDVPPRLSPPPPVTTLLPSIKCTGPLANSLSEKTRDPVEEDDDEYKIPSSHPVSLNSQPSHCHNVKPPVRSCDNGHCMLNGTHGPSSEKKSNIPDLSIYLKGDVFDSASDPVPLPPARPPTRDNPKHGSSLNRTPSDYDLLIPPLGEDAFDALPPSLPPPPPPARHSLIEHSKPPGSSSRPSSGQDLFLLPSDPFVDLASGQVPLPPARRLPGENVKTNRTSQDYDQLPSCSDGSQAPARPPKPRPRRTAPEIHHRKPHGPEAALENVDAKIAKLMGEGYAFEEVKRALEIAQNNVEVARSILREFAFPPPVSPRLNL

SMILES | fold change (FC) [1] | fold change (FC) [2] | fold change (FC) [3] | fold change (FC) [4] | fold change (FC) [5] | fold change (FC) [6] | IC50 [7]
Cc1cc(C(=O)Nc2cccc(C3(Cc4nncn4C)COC3)c2)n2ncc(C)c2n1 | 1.01 | 2.51 | 2.51 | 0.051 | 1.01 | 0.801 | < 100 nM
Cn1cnnc1CC1(c2cccc(N3Cc4c(cc(CN5Cc6cccc(F)c6C5)cc4C(F)(F)F)C3=O)c2)COC1 | 1.31 | 2.51 | >=7.5 | >=0.201 | 1.31 | >=1.001 | < 100 nM
Cn1cnnc1CC1(c2cccc(N3Cc4c(cc(N5CC(C(F)F)C5)cc4C(F)(F)F)C3=O)c2)COC1 | 1.01 | 2.51 | 5 | 0.051 | 1.01 | 0.801 | < 100 nM
CN1C2CCC1CN(c1cc3c(c(C(F)(F)F)c1)CN(c1cccc([C@@](C)(F)C(F)(F)c4nncn4C)c1)C3=O)C2 | 1.01 | 1.01 | 2.51 | 0.101 | 1.31 | 0.801 | < 100 nM
Cn1cnnc1CC1(c2cccc(N3Cc4c(cc(CN5CCCC(F)(F)CC5)cc4C(F)(F)F)C3=O)c2)COC1 | 1.01 | >=7.5 | >=7.5 | >=0.201 | 1.01 | >=1.001 | < 100 nM
Cn1cnnc1CC1(c2cccc(N3Cc4c(cc(CN5CC6C(C5)C6(F)F)cc4C(F)(F)F)C3=O)c2)COC1 (centres undefined) | 1.31 | 5 | >=7.5 | >=0.201 | 1.31 | >=1.001 | < 100 nM
CCOC1CCCN(Cc2cc3c(c(C(F)(F)F)c2)CN(c2cccc(C4(Cc5nncn5C)COC4)c2)C3=O)C1 (centres undefined) | 1.51 | >=7.5 | >=7.5 | >=0.201 | 1.51 | >=1.001 | < 100 nM
Cn1cnnc1CC1(c2cccc(N3Cc4c(cc(CN5CCCC6CC65)cc4C(F)(F)F)C3=O)c2)COC1 (centres undefined) | 1.01 | >=7.5 | >=7.5 | >=0.201 | 1.01 | >=1.001 | < 100 nM
Cn1cnnc1CC1(c2cccc(N3Cc4c(cc(CN5CCC6(CC5)CC6)cc4C(F)(F)F)C3=O)c2)COC1 | 1.51 | >=7.5 | >=7.5 | >=0.201 | 1.51 | >=1.001 | < 100 nM
Cn1cnnc1CC1(c2cccc(N3Cc4c(cc(CN5[C@@H]6CC[C@H]5C[C@H](F)C6)cc4C(F)(F)F)C3=O)c2)COC1 | >=1.76 | 5 | >=7.5 | >=0.201 | >=1.76 | >=1.001 | < 100 nM
Cc1conc1CC1(c2cccc(NC(=O)c3cc(CN4CC[C@H](O)C4)nc(C4CC4)n3)c2)COC1 | 1.31 | >=7.5 | >=7.5 | >=0.201 | 1.31 | >=1.001 | < 100 nM
Cn1cnnc1CC1(c2cccc(N3Cc4c(cc(OC5CNC5)cc4C(F)(F)F)C3=O)c2)COC1 | 1.01 | 1.01 | 1.01 | 0.051 | 1.01 | 0.801 | < 100 nM
CCOc1cc(NC(=O)c2cc(C)nc(C3CC3)n2)cc(C2(Cc3nncn3C)COC2)c1 | 1.01 | 2.51 | 5 | 0.051 | 1.01 | 0.801 | < 100 nM
CN(C)Cc1cc(C(=O)Nc2cccc(C3(Cc4nncn4C)COC3)c2)nc(C2CC2)n1 | 1.31 | 2.51 | >=7.5 | 0.101 | 1.31 | >=1.001 | < 100 nM
CC(c1cc(C(=O)Nc2cccc(C3(Cc4nncn4C)COC3)c2)nc(C2CC2)n1)N1CCCC1 (centres undefined) | 1.31 | >=7.5 | >=7.5 | >=0.201 | 1.31 | >=1.001 | < 100 nM
Cn1cnnc1CC1(c2cccc(N3Cc4c(cc(CN5CC[C@@H](CO)C(F)(F)C5)cc4C(F)(F)F)C3=O)c2)COC1 | 1.31 | 2.51 | >=7.5 | 0.101 | 1.31 | 0.801 | < 100 nM
CN1CC2CCC1CN2c1cc2c(c(C(F)(F)F)c1)CN(c1cccc(C3(Cc4nncn4C)COC3)c1)C2=O (centres undefined) | 1.01 | 2.51 | 5 | >=0.201 | 1.31 | 0.801 | < 100 nM
Cn1cnnc1CC1(c2cccc(NC(=O)c3cc(CN4CCC5CC54)cc(C4CC4)n3)c2)COC1 (centres undefined) | 1.31 | >=7.5 | >=7.5 | >=0.201 | 1.31 | >=1.001 | < 100 nM
Cn1cnnc1CC1(c2cccc(N3Cc4c(cc(C5CCC5)cc4C(F)(F)F)C3=O)c2)COC1 | 1.01 | 2.51 | 2.51 | 0.101 | 1.31 | 0.801 | < 100 nM
Cn1cnnc1CC1(c2cccc(NC(=O)c3cc(CN4C[C@H]5C[C@H]5C4)cc(C4CC4)n3)c2)COC1 | 1.31 | >=7.5 | >=7.5 | >=0.201 | 1.31 | >=1.001 | < 100 nM
Cn1cnnc1CC1(c2cccc(N3Cc4c(cc(N5CC6(CCC6(F)F)C5)cc4C(F)(F)F)C3=O)c2)COC1 | 1.01 | 1.01 | 2.51 | <=0.05 | 1.01 | 0.601 | < 100 nM
C[C@H](Cc1nncn1C)c1cc(C2CCOC2)nc(N2Cc3c(cccc3C(F)(F)F)C2=O)c1 (some centres undefined) | 1.01 | 1.01 | 1.01 | <=0.05 | 1.01 | <=0.6 | ≤ 1000 nM
